T/C data for 23 molecules are collected here from PubChem BioAssay AID330 (DTP/NCI, 2004).

Values joined by “and” are separate entries in the source; they are usually repeats but may differ in a detail not shown here. Equal entries are not always repeated. Toxic doses and inconclusive results are not listed.

This assay has as its system P388 leukemia ip, CD2F1 mice, survival T/C. Briefly: NCI In Vivo Anticancer Drug Screen. Data for tumor model P388 Leukemia (intraperitoneal) in CD2F1 (CDF1) mice. Particulars: endpoint: median survival time, higher = longer survival. Put shortly: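 Mice carrying the transplanted tumor received test compound or vehicle. Survival was recorded in each group, and the value is the treated-group measurement divided by that of the vehicle-treated control group.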

Where [1] appears, read: dose: 60.0 mg/kg/injection, schedule: Q01DX005 (ip), vehicle: Klucel (hydroxypropylcellulose) (HPC).
[2] abbreviates: dose: 120.0 mg/kg/injection, schedule: Q01DX005 (ip), vehicle: Klucel (hydroxypropylcellulose) (HPC).
The mark [3] stands for this setting: dose: 240.0 mg/kg/injection, schedule: Q01DX005 (ip), vehicle: Klucel (hydroxypropylcellulose) (HPC).
The mark [4] stands for this setting: dose: 50.0 mg/kg/injection, schedule: Q01DX005 (ip), vehicle: Klucel (hydroxypropylcellulose) (HPC).
[5] abbreviates: dose: 100.0 mg/kg/injection, schedule: Q01DX005 (ip), vehicle: Klucel (hydroxypropylcellulose) (HPC).
[6] abbreviates: dose: 200.0 mg/kg/injection, schedule: Q01DX005 (ip), vehicle: Klucel (hydroxypropylcellulose) (HPC).
Setting [7] is: dose: 7.5 mg/kg/injection, schedule: Q01DX005 (ip), vehicle: saline with Tween-80.
The mark [8] stands for this setting: dose: 50.0 mg/kg/injection, schedule: Q01DX009 (ip), vehicle: saline with Tween-80.
Setting [9] is: dose: 50.0 mg/kg/injection, schedule: Q01DX005 (ip), vehicle: saline with Tween-80.
[10] abbreviates: dose: 100.0 mg/kg/injection, schedule: Q01DX005 (ip), vehicle: saline with Tween-80.

Consider `COc1ccc2c3c1OC1C(OC)(OC)C=CC4(Cl)[C@@H](C2)N(C)CC[C@]314` (some centres undefined), for which the T/C runs as follows: under setting [1], 96 % of control; under setting [2], 96 % of control; under setting [3], 102 % of control.

Consider `COc1cc2c(c(OC)c1OC)-c1ccc(SC)c(=O)cc1C(NC(=O)c1ccccc1)CC2` (centres undefined), for which the T/C is 155 % of control (dose: 2.5 mg/kg/injection, schedule: Q01DX009 (ip), vehicle: Klucel (hydroxypropylcellulose) (HPC)); 117 % of control (dose: 5.0 mg/kg/injection, schedule: Q01DX009 (ip), vehicle: Klucel (hydroxypropylcellulose) (HPC)); 112 % of control (dose: 625.0 micrograms/kg/injection, schedule: Q01DX009 (ip), vehicle: Klucel (hydroxypropylcellulose) (HPC)); 120 % of control (dose: 1250.0 micrograms/kg/injection, schedule: Q01DX009 (ip), vehicle: Klucel (hydroxypropylcellulose) (HPC)); 90 % of control (dose: 10000.0 micrograms/kg/injection, schedule: Q01DX009 (ip), vehicle: Klucel (hydroxypropylcellulose) (HPC)).

Take `Cc1nc(Cl)c2[nH]c(Cl)nc2n1`: the T/C runs as follows: under setting [4], 102 % of control; under setting [5], 102 % of control; under setting [6], 100 % of control.

`CCOC1NC(=S)N(C2CCCCC2)C1(C)C` (centres undefined): the T/C is 93 % of control (dose: 50.0 mg/kg/injection, schedule: Q01DX009 (ip), vehicle: suspension in saline); 92 % of control (dose: 100.0 mg/kg/injection, schedule: Q01DX009 (ip), vehicle: suspension in saline); 97 % of control (dose: 200.0 mg/kg/injection, schedule: Q01DX009 (ip), vehicle: suspension in saline).

Consider `O=C(N/N=C/c1ccccc1O)c1cc2ccccc2cc1O`, for which the T/C runs as follows: under setting [7], 92 % of control; (dose: 15.0 mg/kg/injection, schedule: Q01DX005 (ip), vehicle: saline with Tween-80) 88 % of control.

As to `CCOC(=O)C1=C(C)NC(=O)NC1c1cccs1` (centres undefined), the T/C reads like this: under setting [4], 98 % of control; under setting [5], 96 % of control; under setting [6], 97 % of control.

In the case of `CCCC1CC[N-]CC1.CCCC1CC[N-]CC1.[Cl][Pt+2][Cl]`, the T/C (dose: 11.0 mg/kg/injection, schedule: Q01DX009 (ip), vehicle: saline with Tween-80) was 100 % of control; the T/C (dose: 16.5 mg/kg/injection, schedule: Q01DX009 (ip), vehicle: saline with Tween-80) was 110 % of control; the T/C (dose: 22.0 mg/kg/injection, schedule: Q01DX009 (ip), vehicle: saline with Tween-80) was 110 % of control; the T/C (dose: 25.0 mg/kg/injection, schedule: Q01DX009 (ip), vehicle: saline with Tween-80) is 115 % of control; the T/C (dose: 33.0 mg/kg/injection, schedule: Q01DX009 (ip), vehicle: saline with Tween-80) is 110 % of control; the T/C (dose: 37.5 mg/kg/injection, schedule: Q01DX009 (ip), vehicle: saline with Tween-80) is 115 % of control. Also, under setting [8], the T/C was 120 % of control.

`CCNC(=O)OCc1c(C)nc2n1CCS2`: the T/C under setting [4] is 115 % of control and the T/C under setting [5] was 112 % of control.

For the molecule `OCC#C[C@@H]1CC[C@H]1C#CCO`, the T/C reads like this: under setting [4], 100 % of control; under setting [5], 103 % of control; under setting [6], 103 % of control.

Take `CC(C)Cn1c(Cl)c(C(=O)O)c2ccccc21`: the T/C was 92 % of control (dose: 100.0 mg/kg/injection, schedule: Q04DX002 (ip), vehicle: Klucel (hydroxypropylcellulose) (HPC)) and 88 % of control (dose: 200.0 mg/kg/injection, schedule: Q04DX002 (ip), vehicle: Klucel (hydroxypropylcellulose) (HPC)).

With `COC/C(Br)=C\SC#N` (tested in a mixture with another compound), the T/C is, setting by setting: (dose: 3.75 mg/kg/injection, schedule: Q01DX005 (ip), vehicle: saline with Tween-80) 120 % of control; under setting [7], 122 % of control.

For the molecule `CCCCN1CCNC1=S`, the T/C is 100 % of control under setting [9]; 102 % of control under setting [10]; 102 % of control (dose: 200.0 mg/kg/injection, schedule: Q01DX005 (ip), vehicle: saline with Tween-80).

As to `C#CCn1cc(F)c(=O)n(CC#C)c1=O`, the T/C (dose: 30.0 mg/kg/injection, schedule: Q04DX002 (ip), vehicle: saline with Tween-80) was 101 % of control; the T/C (dose: 60.0 mg/kg/injection, schedule: Q04DX002 (ip), vehicle: saline with Tween-80) is 99 % of control; the T/C (dose: 120.0 mg/kg/injection, schedule: Q04DX002 (ip), vehicle: saline with Tween-80) is 98 % of control; the T/C (dose: 150.0 mg/kg/injection, schedule: Q04DX002 (ip), vehicle: saline with Tween-80) was 107 % of control; the T/C (dose: 240.0 mg/kg/injection, schedule: Q04DX002 (ip), vehicle: saline with Tween-80) was 100 % of control; the T/C (dose: 300.0 mg/kg/injection, schedule: Q04DX002 (ip), vehicle: saline with Tween-80) is 104 % of control. For the setting “dose: 600.0 mg/kg/injection, schedule: Q04DX002 (ip), vehicle: saline with Tween-80”, the T/C is 98 % of control.

For `CCN(CC)CC(=O)c1ccc(O)c(O)c1`, the T/C by setting is: under setting [8], 91 % of control; (dose: 100.0 mg/kg/injection, schedule: Q01DX009 (ip), vehicle: saline with Tween-80) 98 % of control and 106 % of control; (dose: 200.0 mg/kg/injection, schedule: Q01DX009 (ip), vehicle: saline with Tween-80) 112 % of control and 123 % of control; (dose: 400.0 mg/kg/injection, schedule: Q01DX009 (ip), vehicle: saline with Tween-80) 116 % of control and 117 % of control.

For `CC(=O)OC1C(=O)C(C)(C)CN(C(C)(C)C)CC1(C)C` (centres undefined), the T/C is 100 % of control (dose: 50.0 mg/kg/injection, schedule: Q01DX001 (ip), vehicle: saline sonified); 104 % of control (dose: 100.0 mg/kg/injection, schedule: Q01DX001 (ip), vehicle: saline sonified); 95 % of control (dose: 200.0 mg/kg/injection, schedule: Q01DX001 (ip), vehicle: saline sonified).

Turning to `CCn1c(O)c(N=NC(=N)SCC(C)C)c2ccccc21`, the T/C was 97 % of control (dose: 6.25 mg/kg/injection, schedule: Q01DX009 (ip), vehicle: suspension in saline) and 94 % of control (dose: 12.5 mg/kg/injection, schedule: Q01DX009 (ip), vehicle: suspension in saline).

Regarding `COc1cc2c(cc1OC)C1CC(=O)C(CC(C)C)CN1CC2` (centres undefined), the T/C was 100 % of control (dose: 12.5 mg/kg/injection, schedule: Q01DX009 (ip), vehicle: Klucel (hydroxypropylcellulose) (HPC)); 100 % of control (dose: 25.0 mg/kg/injection, schedule: Q01DX009 (ip), vehicle: Klucel (hydroxypropylcellulose) (HPC)); 103 % of control (dose: 50.0 mg/kg/injection, schedule: Q01DX009 (ip), vehicle: Klucel (hydroxypropylcellulose) (HPC)).

With `O=c1[nH]c(=O)n(C2OC(CO)C(O)C2O)cc1O` (centres undefined), the T/C was 102 % of control (dose: 60.0 mg/kg/injection, schedule: Q01DX005 (ip), vehicle: saline); 101 % of control (dose: 120.0 mg/kg/injection, schedule: Q01DX005 (ip), vehicle: saline); 103 % of control (dose: 240.0 mg/kg/injection, schedule: Q01DX005 (ip), vehicle: saline).

Consider `Cn1cc(C(=O)O)c(=O)c2ccc(/C=C/c3ccc([N+](=O)[O-])o3)nc21`, for which the T/C was 92 % of control (dose: 3.12 mg/kg/injection, schedule: Q01DX009 (ip), vehicle: saline); 97 % of control (dose: 6.25 mg/kg/injection, schedule: Q01DX009 (ip), vehicle: saline); 111 % of control (dose: 12.5 mg/kg/injection, schedule: Q01DX009 (ip), vehicle: saline); 103 % of control (dose: 25.0 mg/kg/injection, schedule: Q01DX009 (ip), vehicle: saline).

Turning to `CC1=CC(=O)C2OC2C1=O` (centres undefined), the T/C (dose: 5.0 mg/kg/injection, schedule: Q04DX002 (ip), vehicle: saline with Tween-80) is 101 % of control.

Regarding `COc1cccc(C=O)c1OCCSC`, the T/C was 99 % of control (dose: 25.0 mg/kg/injection, schedule: Q01DX005 (ip), vehicle: saline with Tween-80); 103 % of control under setting [9]; 108 % of control under setting [10].

As for `NCCC1CCCCN1` (centres undefined), the T/C was 95 % of control (dose: 50.0 mg/kg/injection, schedule: Q01DX001 (ip), vehicle: saline); 105 % of control (dose: 100.0 mg/kg/injection, schedule: Q01DX001 (ip), vehicle: saline); 105 % of control (dose: 200.0 mg/kg/injection, schedule: Q01DX001 (ip), vehicle: saline).

Take `COC(=O)C(Nc1ccc(OC)cc1)c1ccccc1` (centres undefined): the T/C was 108 % of control under setting [1], 104 % of control under setting [2] and 110 % of control under setting [3].
